Results as given in patent US12552766B2, “Pesticidally active azole amide compounds” (SYNGENTA CROP PROTECTION AG, priority 2019, dated 2026).

Legend:
Assay type in all cases: in vivo
[1] = system: Chilo suppressalis (Striped Rice Stemborer); experiment: Example B4: Chilo suppressalis, artificial diet; conditions: 144 h, application rate of 200 ppm, L2 larvae, 6 days after infestation, read-out: control in at least one of the three categories (mortality, anti-feedant effect, or growth inhibition)
Outline: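 Diet-incorporation surface assay: aqueous dilutions of 10'000 ppm DMSO stock applied to artificial diet, dried; 6-8 L2 larvae/well; read day 6 post-infestation for mortality, antifeedant effect, growth inhibition vs untreated. Active if any category above untreated.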

[2] = system: Diabrotica Balteata (Corn Root Worm); experiment: Example B1: Diabrotica balteata, spray on maize sprouts; conditions: 96 h, application rate of 200 ppm, L2 larvae, 4 days after infestation, read-out: control in at least one of the two categories (mortality or growth inhibition)
Outline: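 Spray test: maize sprouts on agar, aqueous dilutions of 10′000 ppm DMSO stock; after drying, 6–10 L2 larvae/well. Read-out at 4 d post-infestation: mortality and growth inhibition vs untreated.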

[3] = system: Plutella xylostella (Diamondback Moth); experiment: Example B13: Plutella xylostella, artificial diet, 96-well; conditions: 216 h, application rate of 500 ppm, eggs/L1 larvae, 9 days after infestation
Method: 96-well microtiter plates containing artificial diet were treated with aqueous test solutions, prepared from 10′000 ppm DMSO stock solutions, by a liquid handling robot. After drying, eggs (˜30 per well) were infested onto a netted lid which was suspended above the diet. The eggs hatch and L1 larvae move down to the diet. The samples were assessed for mortality 9 days after infestation.

[4] = system: Plutella xylostella (Diamond Back Moth); experiment: Example B5: Plutella xylostella, artificial diet, 24-well; conditions: 192 h, application rate of 200 ppm, eggs, 8 days after infestation, read-out: control in at least one of the two categories (mortality or growth inhibition)
Method: 24-well microtiter plates with artificial diet were treated with aqueous test solutions prepared from 10′000 ppm DMSO stock solutions by pipetting. After drying, Plutella eggs were pipetted through a plastic stencil onto a gel blotting paper and the plate was closed with it. The samples were assessed for mortality and growth inhibition in comparison to untreated samples 8 days after infestation.

[5] = system: Euschistus heros (Neotropical Brown Stink Bug); experiment: Example B2: Euschistus heros, spray on soybean leaves; conditions: 120 h, application rate of 200 ppm, N2 nymphs, 5 days after infestation, read-out: control in at least one of the two categories (mortality or growth inhibition)
Method: Soybean leaves on agar in 24-well microtiter plates were sprayed with aqueous test solutions prepared from 10′000 ppm DMSO stock solutions. After drying the leaves were infested with N2 nymphs. The samples were assessed for mortality and growth inhibition in comparison to untreated samples 5 days after infestation.

[6] = system: Spodoptera littoralis (Egyptian Cotton Leaf Worm); experiment: Example B9: Spodoptera littoralis, spray on cotton leaf discs; conditions: foliar, 72 h, application rate of 200 ppm, L1 larvae, 3 days after infestation, read-out: control in at least one of the three categories (mortality, anti-feedant effect, or growth inhibition)
Outline: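 Read-out: mortality, feeding deterrence and growth inhibition, assessed 3 days after infestation relative to untreated samples. Sprayed, dried cotton leaf discs on agar each received five first-instar (L1) larvae; sprays were aqueous solutions prepared from 10′000 ppm DMSO stocks.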

[7] = system: Spodoptera littoralis (Egyptian Cotton Leaf Worm); experiment: Example B10: Spodoptera littoralis, uptake by lettuce roots from agar; conditions: 144 h, test rate of 12.5 ppm, eggs, 6 days after infestation, read-out: control in at least one of the three categories (mortality, anti-feedant, or growth inhibition)
Text: Test compounds were applied by pipette from 10′000 ppm DMSO stock solutions into 24-well plates and mixed with agar. Lettuce seeds were placed onto the agar and the multi well plate was closed by another plate which contained also agar. After 7 days the compound was absorbed by the roots and the lettuce grew into the lid plate. The lettuce leaves were then cut off into the lid plate. Spodoptera eggs were pipetted through a plastic stencil onto a humid gel blotting paper and the lid plate was closed with it. The samples were assessed for mortality, anti-feedant effect and growth inhibition in comparison to untreated samples 6 days after infestation.

[8] = system: Tetranychus urticae (Two-Spotted Spider Mite); experiment: Example B14: Tetranychus urticae, feeding/contact activity; conditions: 192 h
Method: Bean leaf discs on agar in 24-well microtiter plates were sprayed with aqueous test solutions prepared from 10′000 ppm DMSO stock solutions. After drying the leaf discs were infested with a mite population of mixed ages. The samples were assessed for mortality on mixed population (mobile stages) 8 days after infestation.

[9] = system: Myzus persicae (Green Peach Aphid); experiment: Example B12: Myzus persicae, sucrose solution, 96-well; conditions: 120 h, application rate of 50 ppm, 5 days after infestation
Method: Test compounds prepared from 10′000 ppm DMSO stock solutions were applied by a liquid handling robot into 96-well microtiter plates and mixed with a sucrose solution. Parafilm was stretched over the 96-well microtiter plate and a plastic stencil with 96 holes was placed onto the plate. Aphids were sieved into the wells directly onto the Parafilm. The infested plates were closed with a gel blotting card and a second plastic stencil and then turned upside down. The samples were assessed for mortality 5 days after infestation.

[10] = system: Myzus persicae (Green Peach Aphid); experiment: Example B6: Myzus persicae, feeding/contact activity; conditions: 144 h, application rate of 200 ppm, mixed ages, 6 days after infestation
Method: Sunflower leaf discs were placed onto agar in a 24-well microtiter plate and sprayed with aqueous test solutions prepared from 10′000 ppm DMSO stock solutions. After drying, the leaf discs were infested with an aphid population of mixed ages. The samples were assessed for mortality 6 days after infestation.

CC(c1nc(Br)nn1-c1ccc(C#N)cn1)N(C)C(=O)c1cc(C(F)(F)F)cc(C(F)(F)F)c1 (centres unmarked) [Compound P12, N-[1-[5-bromo-2-(5-cyano-2-pyridyl)-1,2,4-triazol-3-yl]ethyl]-N-methyl-3,5-bis(trifluoromethyl) benzamide]
≥ 80%: percent control (mortality, anti-feedant effect or growth inhibition) at 200 ppm [1] | percent control (mortality or growth inhibition) at 200 ppm [2] | mortality at 500 ppm [3] | percent control (mortality or growth inhibition) at 200 ppm [4] | percent control (mortality or growth inhibition) at 200 ppm [5] | percent control (mortality, anti-feedant effect or growth inhibition) at 200 ppm [6] | percent control (mortality, anti-feedant effect or growth inhibition) at 12.5 ppm [7]

CC(NC(=O)c1cc(OC(F)F)cc(C(F)(F)F)c1)c1nc(Br)nn1-c1ccc(OCC(F)F)cn1 (centres unmarked) [Compound P16, N-[1-[5-bromo-2-[5-(2,2-difluoroethoxy)-2-pyridyl]-1,2,4-triazol-3-yl]ethyl]-3-(difluoromethoxy)-5-(trifluoromethyl) benzamide]
≥ 80%: percent control (mortality, anti-feedant effect or growth inhibition) at 200 ppm [1] | percent control (mortality or growth inhibition) at 200 ppm [2] | mortality at 200 ppm [8] | mortality at 500 ppm [3] | percent control (mortality or growth inhibition) at 200 ppm [4] | percent control (mortality, anti-feedant effect or growth inhibition) at 200 ppm [6]

CC(NC(=O)c1cc(OC(F)F)cc(C(F)(F)F)c1)c1nc(Br)nn1-c1ncc(OCC(F)F)cn1 (centres unmarked) [Compound P23, N-[1-[5-bromo-2-[5-(2,2-difluoroethoxy)pyrimidin-2-yl]-1,2,4-triazol-3-yl]ethyl]-3-(difluoromethoxy)-5-(trifluoromethyl)be nzamide]
≥ 80%: percent control (mortality, anti-feedant effect or growth inhibition) at 200 ppm [1] | percent control (mortality or growth inhibition) at 200 ppm [2] | mortality at 500 ppm [3] | percent control (mortality or growth inhibition) at 200 ppm [4] | mortality at 50 ppm [9] | percent control (mortality, anti-feedant effect or growth inhibition) at 200 ppm [6]

CC(NC(=O)c1cc(Br)cc(C(F)(F)F)c1)c1nc(Br)nn1-c1ccc(OCC(F)F)cn1 (centres unmarked) [Compound P35, 3-bromo-N-[1-[5-bromo-2-[5-(2,2-difluoroethoxy)-2-pyridyl]-1,2,4-triazol-3-yl]ethyl]-5-(trifluoromethyl) benzamide]
≥ 80%: percent control (mortality, anti-feedant effect or growth inhibition) at 200 ppm [1] | percent control (mortality or growth inhibition) at 200 ppm [2] | mortality at 500 ppm [3] | percent control (mortality or growth inhibition) at 200 ppm [4] | mortality at 200 ppm [10] | percent control (mortality, anti-feedant effect or growth inhibition) at 200 ppm [6]

CC(NC(=O)c1cc(C(F)F)cc(C(F)(F)F)c1)c1nc(Br)nn1-c1ncc(OCC(F)F)cn1 (centres unmarked) [Compound P40, N-[1-[5-bromo-2-[5-(2,2-difluoroethoxy)pyrimidin-2-yl]-1,2,4-triazol-3-yl]ethyl]-3-(difluoromethyl)-5-(trifluoromethyl) benzamide]
≥ 80%: percent control (mortality, anti-feedant effect or growth inhibition) at 200 ppm [1] | percent control (mortality or growth inhibition) at 200 ppm [2] | mortality at 500 ppm [3] | percent control (mortality or growth inhibition) at 200 ppm [4] | percent control (mortality or growth inhibition) at 200 ppm [5] | percent control (mortality, anti-feedant effect or growth inhibition) at 200 ppm [6]

CC(NC(=O)c1cc(Cl)cc(C(F)(F)F)c1)c1nc(Br)nn1-c1ncc(OCC(F)(F)F)cn1 (centres unmarked) [Compound P43, N-[1-[5-bromo-2-[5-(2,2,2-trifluoroethoxy)pyrimidin-2-yl]-1,2,4-triazol-3-yl]ethyl]-3-chloro-5-(trifluoromethyl) benzamide]
≥ 80%: percent control (mortality, anti-feedant effect or growth inhibition) at 200 ppm [1] | percent control (mortality or growth inhibition) at 200 ppm [2] | mortality at 500 ppm [3] | percent control (mortality or growth inhibition) at 200 ppm [4] | mortality at 50 ppm [9] | percent control (mortality, anti-feedant effect or growth inhibition) at 200 ppm [6]

CC(NC(=O)c1cc(OCC(F)F)cc(C(F)(F)F)c1)c1nc(Br)nn1-c1ncc(OCC(F)F)cn1 (centres unmarked) [Compound P47, N-[1-[5-bromo-2-[5-(2,2-difluoroethoxy)pyrimidin-2-yl]-1,2,4-triazol-3-yl]ethyl]-3-(2,2-difluoroethoxy)-5-(trifluoromethyl) benzamide]
≥ 80%: percent control (mortality, anti-feedant effect or growth inhibition) at 200 ppm [1] | mortality at 500 ppm [3] | percent control (mortality or growth inhibition) at 200 ppm [4] | mortality at 50 ppm [9] | percent control (mortality, anti-feedant effect or growth inhibition) at 200 ppm [6]

CC(NC(=O)c1cc(C(F)F)cc(C(F)(F)F)c1)c1nc(Br)nn1-c1ccc(OCC(F)F)cn1 (centres unmarked) [Compound P52, N-[1-[5-bromo-2-[5-(2,2-difluoroethoxy)-2-pyridyl]-1,2,4-triazol-3-yl]ethyl]-3-(difluoromethyl)-5-(trifluoromethyl) benzamide]
≥ 80%: percent control (mortality, anti-feedant effect or growth inhibition) at 200 ppm [1] | percent control (mortality or growth inhibition) at 200 ppm [2] | mortality at 500 ppm [3] | percent control (mortality or growth inhibition) at 200 ppm [4] | percent control (mortality or growth inhibition) at 200 ppm [5] | percent control (mortality, anti-feedant effect or growth inhibition) at 200 ppm [6]

CC(NC(=O)c1cc(OCC(F)F)cc(C(F)(F)F)c1)c1nc(Br)nn1-c1ccc(OCC(F)(F)F)cn1 (centres unmarked) [Compound P55, N-[1-[5-bromo-2-[5-(2,2,2-trifluoroethoxy)-2-pyridyl]-1,2,4-triazol-3-yl]ethyl]-3-(2,2-difluoroethoxy)-5-(trifluoromethyl) benzamide]
≥ 80%: percent control (mortality or growth inhibition) at 200 ppm [4] | mortality at 200 ppm [10]
